In patent US20240294508A1, “RIP1 MODULATORS INCLUDING AZETIDINE CYCLIC UREAS, PREPARATIONS, AND USES THEREOF” (SIRONAX LTD., priority 2021, published 2024) one finds EC50 data, which are given here for 9 compounds.

Each structure is given as a SMILES string.

This assay has as its system HT-29 cells. The assay is described as follows: HT29 cells 0FBS assay in vitro: TNF-α/SMAC mimetic/zVAD-FMK induced necroptosis, CellTiter-Glo cell viability (RIP1 inhibitory activity). The format is cell-based. Conditions: Homo sapiens, FBS free medium, TNF-α (10 ng/ml) + SMAC mimetic (6 uM) + zVAD-FMK (10 μM), 20 hours, geometric mean EC50. The method, boiled down: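 Luminescent ATP read-out (CellTiter-Glo) gave viability of HT-29 cells after 20 h at 37° C in serum-free medium containing compound and a necroptosis cocktail of 10 ng/ml TNF-α, 6 uM SMAC mimetic and 10 μM zVAD-FMK. EC50s are geometric means of 10-point curves run in duplicate.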
(In general: ATP-based viability assays read luminescence as a measure of living cells.)
For the compound `Cc1nc(C2CC=NN2C(=O)N2CC(Oc3cc(-c4c(C)cnn4C)ncc3F)C2)cs1` (stereo not drawn) [Compound 96, (3-((2-(1,4-dimethyl-1H-pyrazol-5-yl)-5-fluoropyridin-4-yl)oxy)azetidin-1-yl)(5-(2-methylthiazol-4-yl)-4,5-dihydro-1H-pyrazol-1-yl)methanone], the concentration for a half-maximal effect (EC50) (in general, the concentration that produces a half-maximal response) was in the range of 0.1 to 100 nM.

In the case of `Cc1nn(-c2cc(OC3CN(C(=O)C4=NNCC4c4cc(F)cc(F)c4)C3)c(F)cn2)c(C)c1C(N)=O` (stereo not drawn) [Compound 162, 1-(4-((1-(4-(3,5-difluorophenyl)-4,5-dihydro-1H-pyrazole-3-carbonyl)azetidin-3-yl)oxy)-5-fluoropyridin-2-yl)-3,5-dimethyl-1H-pyrazole-4-carb oxamide], the EC50 lay within 0.1 to 100 nM.

With `Cc1nn(-c2cc(OC3CN(C(=O)N4N=CC[C@H]4c4cc(F)cc(F)c4)C3)c(Cl)cn2)c(C)c1C#N` [Compound 159, (S)-1-(5-chloro-4-((1-(5-(3,5-difluorophenyl)-4,5-dihydro-1H-pyrazole-1-carbonyl)azetidin-3-yl)oxy)pyridin-2-yl)-3,5-dimethyl-1H-pyrazole-4-carbonitrile], the EC50 was 0.1 to 100 nM.

As for `Cc1cnn(C)c1-c1cc(OC2CN(C(=O)N3N=CCC3c3cccnc3)C2)c(F)cn1` (stereo not drawn) [Compound 99, (3-((2-(1,4-dimethyl-1H-pyrazol-5-yl)-5-fluoropyridin-4-yl)oxy)azetidin-1-yl)(5-(pyridin-3-yl)-4,5-dihydro-1H-pyrazol-1-yl)methanone], the EC50 was 0.1 to 100 nM.

With `COCCn1nc(C)c(-c2cc(OC3CN(C(=O)N4N=CC[C@H]4c4cc(F)cc(C#N)c4)C3)c(F)cn2)c1C` [Compound 20, (S)-3-fluoro-5-(1-(3-((5-fluoro-2-(1-(2-methoxyethyl)-3,5-dimethyl-1H-pyrazol-4-yl)pyridin-4-yl)oxy)azetidine-1-carbonyl)-4,5-dihydro-1H-pyrazol-5-yl)benzonitrile], the EC50 lay in the range of 0.1 to 100 nM.

Regarding `Cc1c(-c2cc(OC3CN(C(=O)N4N=CC[C@H]4c4cccc(F)c4)C3)c(F)cn2)nn(C)c1C(N)=O` [Compound 111, (S)-3-(5-fluoro-4-((1-(5-(3-fluorophenyl)-4,5-dihydro-1H-pyrazole-1-carbonyl)azetidin-3-yl)oxy)pyridin-2-yl)-1,4-dimethyl-1H-pyrazole-5-carb oxamide], the concentration for a half-maximal effect (EC50) fell in the range of 0.1 to 100 nM.

In the case of `Cc1cnn(C)c1-c1ccc(F)c(OC2CN(C(=O)N3N=CC[C@H]3c3cncc(C#N)c3)C2)n1` [Compound 55, (S)-5-(1-(3-((6-(1,4-dimethyl-1H-pyrazol-5-yl)-3-fluoropyridin-2-yl)oxy)azetidine-1-carbonyl)-4,5-dihydro-1H-pyrazol-5-yl)nicotinonitrile], the EC50 was in the range of 0.1 to 100 nM.

As for `Cc1cn(C)c(-c2cc(OC3CN(C(=O)N4N=CC[C@H]4c4cc(F)cc(C#N)c4)C3)c(F)cn2)n1` [Compound 23, (S)-3-(1-(3-((2-(1,4-dimethyl-1H-imidazol-2-yl)-5-fluoropyridin-4-yl)oxy)azetidine-1-carbonyl)-4,5-dihydro-1H-pyrazol-5-yl)-5-fluorobenzonitrile], the EC50 lay in the range of 0.1 to 100 nM.

In the case of `Cc1c(C(N)=O)nn(C)c1-c1cc(OC2CN(C(=O)N3N=CC[C@H]3c3cc(F)cc(C#N)c3)C2)c(F)cn1` [Compound 58, (S)-5-(4-((1-(5-(3-cyano-5-fluorophenyl)-4,5-dihydro-1H-pyrazole-1-carbonyl)azetidin-3-yl)oxy)-5-fluoropyridin-2-yl)-1,4-dimethyl-1H-pyrazole-3-carboxamide], the EC50 was 0.1 to 100 nM.
